Source: patent US7560609B2, “Diabetic model” (priority 2001, dated 2009)

Assay: Insulin sensitivity test
Format: in vivo, bank voles
Conditions: 60 minutes following insulin
Procedure: In the Group A bank voles (n=101), four female animals were found positive for glucosuria and blood glucose values of 215, 302, 313 and 340 mg/dl, respectively, In the remaining bank voles, the mean blood glucose±S.D. was normally distributed at 101±28 mg/dl. The body weight of the trapped voles from group A ranged from 8.5-28.4 g, the mean value±S.D. was 19±5 g. Occasional hyperglycemic and glucosuric bank voles may therefore be trapped in the wild. Whether these four animals had stress-induced hyperglycemia or overt diabetes remains to be established. […] As many as 18/22 (82%) had ketones and were polydipsic. […] We therefore next examined the pancreas histology in non-diabetic and diabetic bank voles to test if the classification of type 1 diabetes was supported by a loss of beta cells.

For “Actrapid: insulin (Actrapid, Novo Nordisk, Copenhagen, Denmark) used in the insulin sensitivity test”, the “decrease in blood glucose” value (eight animals with blood glucose <120 mg/dl) was 40%, the “decrease in blood glucose” value (four animals with blood glucose at 120-200 mg/dl) was 60% and the “decrease in blood glucose” value (four animals with blood glucose levels above 200 mg/dl) was 30%.
